Like-named read-outs stand apart in the source and are kept apart here. Marks after values point to notes of the source that are not given here. Blank lines part the entries; values can stand above or below the molecule they belong to.
Experiments:
AR = AR antagonistic activity: AR / PSA ARE1 luciferase reporter gene assay in transfected LNCaP cells stimulated with 1 nM DHT; type: cell-based; details: treatment concentration: 3.3 µM, 24 h, normalised to 0.1% DMSO and 30 µM enzalutamide
Method: LNCaP cells were plated in a 6-well plate (Corning, 3516) at 8 × 10^5 cells/well.
AR and PSA ARE1 reporter gene plasmids (Bio (Anhui) Co., Ltd.) and transfection reagents Lipo3000 and P3000 (Lipofectamine™ 3000) (a total of 2.5 µg of plasmids, i.e., 1.25 µg of each plasmid, were added to each well) were left to stand and incubated for 10 min, and then 250 µL of the above transfection reagents were added dropwise to each well containing cells and co-incubated with the cells for 24 h.
The cells were washed with PBS, and the medium was replaced with a phenol red-free RPMI-1640 medium containing 5% carbon adsorption serum (or 10% fetal bovine serum and 1% penicillin and streptomycin). The cells were re-plated onto a 96-well plate (Corning, 3603) according to the number of cells plated (2 × 10^4 cells/well).
After cell plating, the test compound (or DMSO or positive control) was added. After at least 30 min of incubation, DHT (dihydrotestosterone) was added to the culture system at a final concentration of 1 nM. The culture system was then incubated in a carbon dioxide incubator.
Test compound: 10 mM stock solution, with a final concentration of 3.3 µM or 6.7 µM. Negative control: 0.1% DMSO. Positive control: 30 µM enzalutamide.
After the test compound (or DMSO or positive control) and DHT were co-incubated for 24 h, the luciferase signal was detected using the Vazyme Bright-Lite substrate. The medium was added at 70 µL/well, and the plate was shaken for 2 min, followed by reading of the luciferase signal.
Assay robustness was confirmed using the DMSO and low concentration control data: Ave_H = Ave(DMSO) [formula] Ave_L = Ave (30μMenzalutamide) [formula] Inhibition rate (%) = (Ave_H−Sample)/(Ave_H−Ave_L) × 100% [formula] Ave_H: the measurement of the negative control (0.1% DMSO); Ave_L: the measurement of the positive control (30 µM enzalutamide); Sample: the measurement of the test compound; The corresponding activity test results for the test compounds were specified in Table 1. Table 1. Corresponding activity test results for compounds disclosed herein

[1] = Metabolic stability assay in liver microsomes; type: in vitro ADME; details: pH 7.4, human liver microsome 0.5 mg/mL, 1 mM NADPH, compound 1 µM, 37 °C; for microsomal CLint at 1 µM: read-out: In vitro Clint; for half-life at 1 µM: read-out: In vitro T1/2
Method: The metabolic stability of compounds disclosed herein in liver microsomes was determined using the following method.
• 1. Liver microsome source: Human liver microsome (Corning, 452117) • 2. Na2HPO4 (Tianjin Guangfu Fine Chemical Research Institute, 20180130) • 3. KH2PO4 (Tianjin Guangfu Fine Chemical Research Institute, 20180920) • 4. MgCl2 (Tianjin Guangfu Fine Chemical Research Institute, 20191216) • 5. NADPH (Solarbio, 1216C022) • 6. Positive control compound verapamil (Sigma, MKBV4993V) • 7. AB Sciex Triple Quad 4000 liquid chromatography-mass spectrometry system
1. Preparation of 100 mM phosphate-buffered saline (PBS): 7.098 g Na2HPO4 was dissolved in 500 mL of purified water by sonication to give solution A. 3.400 g of KH2PO4 was dissolved in 250 mL of purified water by sonication to give solution B. Solution A was placed on a stirrer, and solution B was added slowly until the pH reached 7.4, so as to give a 100 mM PBS buffer. 2. Preparation of reaction system The reaction system was prepared according to the table below.
3. The reaction system was pre-incubated in a 37 °C water bath for 10 min. 40 µL of 10 mM NADPH solution (NADPH was dissolved in 100 mM phosphate-buffered saline) was added to the reaction system, with the final concentration of NADPH being 1 mM. A negative control was prepared by replacing the NADPH solution with 40 µL of phosphate-buffered saline. The negative control was used to exclude the effect of the chemical stability of the compound itself. 4. The reaction was initiated by adding 4 µL of 100 µM compound disclosed herein or positive control compound verapamil to the reaction system at a final concentration of 1 µM. 5. After 0.5 min, 15 min, 30 min, 45 min, and 60 min of mixing well by using a vortex oscillator, 50 µ L of the incubated sample was taken out, and glacial acetonitrile containing an internal standard of 4 folds was added to terminate the reaction. The sample was centrifuged at 3,220 g for 45 min. 90 µL of the supernatant was transferred to a feeding plate after the centrifugation was completed, and 90 µL ultrapure water was added. The mixture was well mixed for LC-MS/MS analysis.
All data were calculated by using Microsoft Excel software. The peak areas were determined by using an extracted ion chromatogram. The in vitro half-life (T1/2) of the test compound was determined by linear fitting of the natural logarithm of the elimination proportion of the test compound over time. In vitro half-life (T1/2) was calculated by the slope k: in vitro T1/2 = 0.693/k [formula]
The in vitro intrinsic clearance (in vitro CLint, unit: µL/min/mg protein) was calculated using the following formula: in vitro CLint = k × volume of incubation solution/enzyme protein content; [formula]

in vitro = details: human, blood
Method: (§1) 1 mM stock solutions of the test compounds were prepared in DMSO, and a 1 mM stock solution of the reference compound propantheline was prepared in acetonitrile.
(§2) 4 µL of test compound (or reference compound) stock solution was added to 796 µL of pre-incubated human blood (whole blood) at a final concentration of 5 µM. The final concentration of the solvent was 0.5%. At different time points (including 5 min, 15 min, 30 min, 60 min, and 120 min), a 50 µL aliquot of the whole blood containing the sample was added to a new tube and incubated in a 37 °C water bath with shaking at 60 rpm. The treatment was performed in duplicate. At designated time points, 300 µL of room-temperature quenching solution (a solution of acetonitrile containing internal standards (100 nM alprazolam, 500 nM labetalol, and 2 µM ketoprofen)) was added to the whole blood sample containing the sample to terminate the reaction. 50 µL of whole blood containing the sample was added to a new tube containing 300 µL of room-temperature quenching solution to prepare a sample at 0 min. All samples were vortexed for 5 min. The samples in the plate were centrifuged at 3220 g for 30 min at 4 °C to precipitate the proteins. 100 µL of the supernatant was transferred to a new 96-well plate containing 100 µL of water for LC-MS/MS analysis.
(§3) The peak area ratio was determined by using an extracted ion chromatogram. The proportion of remaining compound at each time point was calculated according to the following formula: Remaning proporion t min (%) = peak area ratio t min / peak area ratio 0 min × 100% [formula] • Peak area ratio t min: peak area ratio of reference compound to test compound at t min; • Peak area ratio 0 min: peak area ratio of reference compound to test compound at time zero.
(§4) The slope value was determined by linear regression on the curve of the natural logarithm of the remaining proportion of the test compound versus the incubation time.
(§5) Determination of in vitro half-life (in vitro t1/2) from the slope value: in vitro t1/2 = 0.693/k [formula] in the formula, k is the rate constant (k = -slope value)

C57BL/6 mice [2] = details: mouse, in vivo
From the text: (§6) Animal information: C57BL/6 mice (male, aged 4-6 weeks, about 18-20 g), purchased from Shanghai Lingchang Biotechnology Co., Ltd. The mice were bred in an SPF-level environment within independently ventilated cages.
(§7) Skin preparation: After 1-2 weeks of acclimation, the hairs in a 2 cm × 3 cm area of the back of the mice were shaved to confirm that the hairs of the mice were in the telogen phase (the skin was pink) and the skin was not damaged.
(§8) Treatment: On day 3 after shaving, the mice were grouped for treatment. […] The control group received the control solvent. 12 mice were in each group.
(§9) The mice were weighed on days 10, 13, 18, 21, 25, and 30, and the hair growth state was scored and photographed.
(§10) The scoring criteria are as follows: • 0: no growth, with pink skin in the shaved area; • 1: the skin in the shaved area was gray (an increase of less than 20%); • 2: the skin in the shaved area was black (more than 20% but less than 40%); • 3: the skin in the shaved area was black with a little hair growth (more than 40% but less than 60%); • 4: the skin in the shaved area was black with partial hair growth (more than 60% but less than 80%); • 5: basically complete hair growth (80%-100% growth) in the shaved area.

[3] = 5 µM
Method: as §1, §2, §3, §4, §5

C57BL/6 mice [4] = experiment: In vivo pharmacodynamic study 1: hair growth scoring in shaved telogen-phase mice, topical treatment; details: for Score (mean±SD): hair growth score 0-5, topical twice daily, compound 001 2 wt%, compound 008 0.5 wt%
From the text: as §6, §7, §8, §9, §10

C57BL/6 mice [5] = experiment: In vivo pharmacodynamic study 2: hair growth scoring in shaved telogen-phase mice, topical treatment; details: for Score (mean±SD): hair growth score 0-5, 0.5 wt% topical twice daily
From the text: Vehicle: propylene glycol/ethanol (30:70, v/v)
A 1 cm × 1 cm area in the center of the back skin was selected as the treatment area.
The control group received the control solvent. 12 mice were in each group.
The mice were weighed on days 9, 12, 15, 19, and 22, and the hair growth state was scored and photographed.

Whole blood stability = details: human
Method: as §1, §2, §3, §4, §5

[6] = at the investigated doses (0.5 wt%, BID topical)

SMILES: CCOC(=O)C(C)(O)C(=O)Nc1cnc(C#N)c(SC)c1 (single isomer, unassigned) [Compound 016B]
AR antagonism (inhibition rate, %) (AR): 90.50^a %
microsomal CLint at 1 µM ([1]; microsomes): 88.3 µL/min/mg
half-life at 1 µM ([1]; microsomes): 0.262 h
half-life at 5 µM (in vitro): 1.69 h

SMILES: CCOC(=O)C(C)(O)C(=O)Nc1cnc(C#N)c(C(F)(F)F)c1 (stereo not shown) [Compound 001, Ethyl 3-[[6-cyano-5-(trifluoromethyl)-pyridin-3-yl]amino]-2-hydroxy-2-methyl-3-oxopropanoate]
AR antagonism (inhibition rate, %) (AR): 86.6^a %
impact on the body weight of the mice (C57BL/6 mice [2]): no significant impact
signs of erythema, dehiscence, desquamation, and the like on the skin (C57BL/6 mice [2]): no signs
Human whole blood half-life T1/2 [3]: 2.9982 h
Score (mean±SD) (C57BL/6 mice [4]; Day 0): 0
Score (mean±SD) (C57BL/6 mice [4]; Day 10): 0.6±0.5
Score (mean±SD) (C57BL/6 mice [4]; Day 13): 0.9±0.9
Score (mean±SD) (C57BL/6 mice [4]; Day 18): 1.3±1.4
Score (mean±SD) (C57BL/6 mice [4]; Day 21): 1.9±1.8
Score (mean±SD) (C57BL/6 mice [4]; Day 25): 2.4±2.2
Score (mean±SD) (C57BL/6 mice [4]; Day 30): 3.0±1.8
effect on mouse hair growth (C57BL/6 mice [4]; compound 001 at 2%, compound 008 at 0.5%, BID topically at 20 µL/cm^2): significant promoting effect
day of the treatment from which hair growth was significantly promoted (C57BL/6 mice [4]; vs. vehicle control, 001 P < 0.01, 008 P < 0.05): ≥ 10 days

microsomal CLint at 1 µM ([1]; human liver microsomes): 91.8 µL/min/mg
half-life at 1 µM ([1]; human liver microsomes): 0.252 h
signs of erythema, dehiscence, desquamation, and the like on the skin (C57BL/6 mice [5]; [6]): no signs
half-life at 5 µM (Whole blood stability): 2.2 h
SMILES: CCOC(=O)[C@@](C)(O)C(=O)Nc1cnc(C#N)c(SC)c1 [Compound 016A, ethyl (2S)-3-[(6-cyano-5-methylthio-pyridin-3-yl)amino]-2-hydroxy-2-methyl-3-oxopropanoate]
AR antagonism (inhibition rate, %) (AR): 99.98^a %
effect on hair growth (C57BL/6 mice [5]; 0.5 wt%, BID topically at 20 µL/cm^2): significant promoting effect
Score (mean±SD) (C57BL/6 mice [5]; Day 0): 0
Score (mean±SD) (C57BL/6 mice [5]; Day 9): 0.1±0.3
Score (mean±SD) (C57BL/6 mice [5]; Day 12): 0.1±0.3
Score (mean±SD) (C57BL/6 mice [5]; Day 15): 0.5±0.8
Score (mean±SD) (C57BL/6 mice [5]; Day 19): 1.7±1.5
Score (mean±SD) (C57BL/6 mice [5]; Day 22): 2.9±1.6
impact on the body weight of the mice (C57BL/6 mice [5]; [6]): no significant impact
day of the treatment from which hair growth was significantly promoted (C57BL/6 mice [5]; vs. vehicle control, P < 0.0001): ≥ 19 days

— patent publication EP4772498A1, “COMPOUND ACTING AS ANDROGEN RECEPTOR ANTAGONIST” (China Pharmaceutical University, priority 2023, dated 2025)
